The target in this assay is T1, RORc ligand binding domain (Homo sapiens, UniProt P51449).
T1 construct: host or cells: E. coli
T1 sequence (P51449 269-508 limits assumed): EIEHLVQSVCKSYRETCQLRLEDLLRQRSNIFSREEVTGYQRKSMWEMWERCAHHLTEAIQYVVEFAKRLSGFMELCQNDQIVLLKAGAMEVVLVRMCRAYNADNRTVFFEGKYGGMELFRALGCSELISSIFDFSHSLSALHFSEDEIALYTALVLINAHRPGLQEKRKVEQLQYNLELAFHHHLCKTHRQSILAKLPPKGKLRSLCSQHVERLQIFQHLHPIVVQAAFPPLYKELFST
Briefly: In Vitro RORc Ligand Binding Assay (25-[3H]hydroxycholesterol radioligand filtration). The note with it: read-out: RORc IC50.

Setting [1] is: In Vitro RORc Ligand Binding Assay, Table 4.

Structures are written as SMILES. Read-outs that look alike come from different tables or passages of the source.

A word on the IC50: it is the concentration at which inhibition is half-maximal.

As for `C[C@H]1CCC(c2ccccc2)S(=O)(=O)N1Cc1ccc(N2CCN3C(=O)CNC(=O)[C@@H]3C2)cc1F` (stereo partly drawn) [Example 401, (S)-8-[3-Fluoro-4-((3S)-methyl-1,1-dioxo-6-phenyl-[1,2]thiazinan-2-ylmethyl)-phenyl]-hexahydro-pyrazino[1,2-a]pyrazine-1,4-dione], the IC50 came out at 2790 nM.
In the case of `C[C@H]1CCC(c2ccccc2)S(=O)(=O)N1Cc1ccc(C(=O)N2CC3(CCCOC3)C2)cc1` (stereo partly drawn) [Example 356, [4-((3S)-Methyl-1,1-dioxo-6-phenyl-[1,2]thiazinan-2-ylmethyl)-phenyl]-(6-oxa-2-aza-spiro[3.5]non-2-yl)-methanone], under setting [1], the IC50 came out at 3170 nM.
On the same count and under the same terms, to `N#CCC(=O)N1CCN(c2ccc(CN3CCCCC(c4ccccc4)S3(=O)=O)cc2)CC1` (single isomer, unassigned) [Example 310, 3-{4-[4-(1,1-Dioxo-7-phenyl-[1,2]thiazepan-2-ylmethyl)-phenyl]-piperazin-1-yl}-3-oxo-propionitrile] belongs 45 nM; to `CC(=O)N1CCN(c2ccc(CN3CCCC(c4ccccc4)S3(=O)=O)c(F)c2)CC1` (stereo not shown) [Example 10, 1-{4-[4-(1,1-Dioxo-6-phenyl-[1,2]thiazinan-2-ylmethyl)-3-fluoro-phenyl]-piperazin-1-yl}-ethanone], 149 nM.
On the same count and under the same terms, for `C[C@H]1CCC(c2ccccc2)S(=O)(=O)N1Cc1ccc(C(=O)N2CC3COCC3C2)cc1` (stereo partly drawn) [Example 364, [4-((3S)-Methyl-1,1-dioxo-6-phenyl-[1,2]thiazinan-2-ylmethyl)-phenyl]-(tetrahydro-furo[3,4-c]pyrrol-5-yl)-methanone] the value was 2920 nM.
Still for that read-out and setting: to `CC1CN(C(=O)c2ccc(CN3[C@@H](C)CCC(c4ccccc4)S3(=O)=O)cc2)CC(=O)N1` (stereo partly drawn) [Example 368, 6-Methyl-4-[4-((3S)-methyl-1,1-dioxo-6-phenyl-[1,2]thiazinan-2-ylmethyl)-benzoyl]-piperazin-2-one] belongs 2360 nM; to `CC(=O)N1CCN(c2ccc(CN3CC4(COC4)CC(c4ccccc4)S3(=O)=O)c(F)c2)CC1` (single isomer, unassigned) [Example 258, 1-(4-(4-((7,7-dioxido-8-phenyl-2-oxa-7-thia-6-azaspiro[3.5]nonan-6-yl)methyl)-3-fluorophenyl)piper-azin-1-yl)ethanone], 1040 nM; to `C[C@H]1CCC(c2ccccc2)S(=O)(=O)N1Cc1ccc(N2CCC(c3nnn[nH]3)CC2)cc1F` (single isomer, unassigned) [Example 141], 57 nM.
With `CC(=O)N1CCN(c2ccc(CN3CCCCC(c4ccccc4)S3(=O)=O)cc2F)CC1` (single isomer, unassigned) [Example 344, 1-{4-[4-(1,1-Dioxo-7-phenyl-[1,2]thiazepan-2-ylmethyl)-2-fluoro-phenyl]-piperazin-1-yl}-ethanone], the IC50 under setting [1] stood at 32 nM.
On to `C[C@H]1CCC(c2ccccc2)S(=O)(=O)N1Cc1ccc(N2CCC(N3CCCC3=O)CC2)cc1F` (stereo partly shown), for which the IC50 came out at 878 nM.
`C[C@H]1CCC(c2ccccc2)S(=O)(=O)N1Cc1ccc(N2CCN(C(=O)C3CC3)CC2)cc1F` (single isomer, unassigned) [Example 59]: the half-inhibitory concentration (IC50) under setting [1] was 15 nM.
Still for that read-out and setting: to `C[C@H]1CCC(c2ccccc2)S(=O)(=O)N1Cc1ccc(N2CCC(c3ccn[nH]3)CC2)cc1F` (single isomer, unassigned) [Example 212] belongs 16 nM; to `C[C@H](O)C(=O)N1CCN(c2ccc(CN3CCCCC(c4ccccc4)S3(=O)=O)c(F)c2)CC1` (single isomer, unassigned) [Example 304, 1-{4-[4-(1,1-Dioxo-7-phenyl-[1,2]thiazepan-2-ylmethyl)-3-fluoro-phenyl]-piperazin-1-yl}-2-hydroxy-propan-1-one], 38 nM; to `C[C@H]1CCC(c2ccccc2)S(=O)(=O)N1Cc1ccc(N2CCc3[nH]ncc3C2)cc1F` (single isomer, unassigned) [Example 156], 272 nM.
Same read-out and setting: for `CC(=O)N1CCN(c2ccc(CN3[C@@H](C)CCC(c4ccccc4)S3(=O)=O)c(C)c2)CC1` (single isomer, unassigned) [Example 132] the value was 3930 nM; for `CC(=O)NCCC1CCN(C(=O)c2ccc(CN3[C@@H](C)CCC(c4ccccc4)S3(=O)=O)cc2)CC1` (stereo partly drawn) [Example 359, N-(2-{1-[4-((3S)-Methyl-1,1-dioxo-6-phenyl-[1,2]thiazinan-2-ylmethyl)-benzoyl]-piperidin-4-yl}-ethyl)-acetamide], 2030 nM.
On to `C[C@H]1CCC(c2ccccc2)S(=O)(=O)N1Cc1ccc(OC2CCOC2)cc1` (stereo partly drawn) [Example 447, (3S)-Methyl-6-phenyl-2-[4-(tetrahydro-furan-3-yloxy)-benzyl]-[1,2]thiazinane 1,1-dioxide], for which the IC50 was determined as 268 nM.
Consider `C[C@H]1CCC(c2ccccc2)S(=O)(=O)N1Cc1ccc(N2CC3(CCOCC3)C2)cc1F` (single isomer, unassigned) [Example 85], for which the IC50 under setting [1] was found to be 89 nM.
Same read-out and setting: to `CC(=O)N1CCCN(c2ccc(CN3[C@@H](C)CCC(c4ccccc4)S3(=O)=O)c(F)c2)CC1` (single isomer, unassigned) [Example 81] belongs 118 nM; to `CC(=O)N1CCN(c2ccc(CN3CCC(C)CC(c4ccccc4)S3(=O)=O)c(F)c2)CC1` (single isomer, unassigned) [Example 331, 1-{4-[3-Fluoro-4-(5-methyl-1,1-dioxo-7-phenyl-[1,2]thiazepan-2-ylmethyl)-phenyl]-piperazin-1-yl}-ethanone], 22 nM.
As for `C[C@H]1CCC(c2ccccc2)S(=O)(=O)N1Cc1ccc(OCC2(C)COC2)cc1` (stereo partly drawn) [Example 448, (3S)-Methyl-2-[4-(3-methyl-oxetan-3-ylmethoxy)-benzyl]-6-phenyl-[1,2]thiazinane 1,1-dioxide], the IC50 was 656 nM.
Consider `C[C@H]1CCC(c2ccccc2)S(=O)(=O)N1Cc1ccc(N2CCN(C3=CC(=O)CC(C)(C)C3)CC2)cc1F` (stereo partly drawn) [Example 187, 3-{4-[3-Fluoro-4-((3S)-3-methyl-1,1-dioxo-6-phenyl-[1,2]thiazinan-2-ylmethyl)-phenyl]-piperazin-1-yl}-5,5-dimethyl-cyclohex-2-enone], for which the IC50 under setting [1] was determined as 647 nM.
The same measure, in the same setting: to `COc1cc(CN2[C@@H](C)CCC(c3ccccc3)S2(=O)=O)ccc1N1CCN(C(C)=O)CC1` (single isomer, unassigned) [Example 161] belongs 3080 nM; to `CC[C@H]1CCC(c2ccccc2)S(=O)(=O)N1Cc1ccc(N2CCC(n3cnnc3)CC2)cc1F` (single isomer, unassigned) [Example 228], 21 nM.
With `C[C@H]1CCC(c2ccccc2)S(=O)(=O)N1Cc1ccc(N2CCC(n3cnnn3)CC2)cc1` (stereo partly drawn) [Example 422, (3S)-Methyl-6-phenyl-2-[4-(4-tetrazol-1-yl-piperidin-1-yl)-benzyl]-[1,2]thiazinane 1,1-dioxide], the IC50 amounted to 70 nM.
With `C[C@H]1CCC(c2ccccc2)S(=O)(=O)N1Cc1ccc(N2CCC(c3ncno3)CC2)cc1F` (single isomer, unassigned) [Example 220], the IC50 under setting [1] was 43 nM.
Turning to `C[C@H]1CCC(c2ccccc2)S(=O)(=O)N1Cc1ccc(N2CCn3nccc3C2)cc1F` (single isomer, unassigned) [Example 133], under setting [1], the IC50 worked out at 244 nM.
On the same count and under the same terms, for `C[C@H]1CCC(c2ccccc2)S(=O)(=O)N1Cc1ccc(N2CC3(CCOC3)C2)cc1F` (single isomer, unassigned) [Example 94] the value was 54 nM; for `CO[C@@H](C)C(=O)N1CCN(c2ccc(CN3[C@@H](C)CCC(c4ccccc4)S3(=O)=O)c(F)c2)CC1` (single isomer, unassigned) [Example 77], 138 nM; for `C[C@H]1CCC(c2ccccc2)S(=O)(=O)N1Cc1ccc(C(=O)NC2CN(S(C)(=O)=O)C2)cc1` (stereo partly drawn) [Example 387, N-(1-Methanesulfonyl-azetidin-3-yl)-4-((3S)-methyl-1,1-dioxo-6-phenyl-[1,2]thiazinan-2-ylmethyl)-benzamide], 607 nM.
Same read-out and setting: to `O=S1(=O)C(c2ccccc2)CCCCN1Cc1ccc(N2CCC(n3cnnc3)CC2)cc1F` (single isomer, unassigned) [Example 325, 2-[2-Fluoro-4-(4-[1,2,4]triazol-4-yl-piperidin-1-yl)-benzyl]-7-phenyl-[1,2]thiazepane 1,1-dioxide] belongs 10 nM.
The same measure, in the same setting: for `COc1cc(N2CCN(C(C)=O)CC2)ccc1CN1[C@@H](C)CCC(c2ccccc2)S1(=O)=O` (single isomer, unassigned) [Example 159] the value was 1610 nM.
As to `C[C@H]1CCC(c2ccccc2)S(=O)(=O)N1Cc1ccc(N2CCN(C(=O)C3CC3)CC2)cc1F` (single isomer, unassigned) [Example 58], the IC50 under setting [1] worked out at 14 nM.
Take `C[C@H]1CCC(c2ccccc2)S(=O)(=O)N1Cc1ccc(N2CC3(CC(n4cnnc4)C3)C2)cc1F` (stereo partly drawn) [Example 425, 2-[3-Fluoro-4-((3S)-methyl-1,1-dioxo-6-phenyl-[1,2]thiazinan-2-ylmethyl)-phenyl]-6-[1,2,4]triazol-4-yl-2-aza-spiro[3.3]heptane]: the IC50 worked out at 1010 nM.
With `CC(=O)N1CCN(c2ccc(CN3[C@@H](C)CCC(c4ccccc4)S3(=O)=O)cn2)CC1` (single isomer, unassigned) [Example 42], the IC50 under setting [1] is 837 nM.
As to `C[C@H]1CCC(c2ccccc2)S(=O)(=O)N1Cc1ccc(C(=O)N2CCOC(C(N)=O)C2)cc1` (stereo partly drawn) [Example 298, 4-[4-((3S)-Methyl-1,1-dioxo-6-phenyl-[1,2]thiazinan-2-ylmethyl)-benzoyl]-morpholine-2-carboxylic acid amide], the IC50 under setting [1] is 4720 nM.
Regarding `CC(=O)N1CCN(c2ccc(CN3CCCCC(c4ccccc4)S3(=O)=O)c(F)c2)CC1` (single isomer, unassigned) [Example 15, 1-{4-[4-(1,1-Dioxo-7-phenyl-[1,2]thiazepan-2-ylmethyl)-3-fluoro-phenyl]-piperazin-1-yl}-ethanone], under setting [1], the IC50 is 11 nM.

The record behind these values is patent publication US9115101B2 (Genentech, Inc., priority 2012, dated 2015).
